Measured values taken from the NIST ThermoML archive (doi:10.1021/je900468u).

Legend:
[1] = refractive index (Na D-line) (dimensionless); xn = mol fraction of the nth substance listed; conditions: 101 kPa, Liquid, Standard Abbe refractometry
[2] = xn = mol fraction of the nth substance listed; conditions: 101 kPa, Liquid; for speed of sound: Pulse-echo method
[3] = 101 kPa, Liquid; for speed of sound: Pulse-echo method
[4] = refractive index (Na D-line) (dimensionless); conditions: 101.33 kPa, Liquid, Standard Abbe refractometry

CC1CCCCC1 [methylcyclohexane] + Cc1ccccc1
Conditions	mass density, [2] [kg/m3]	refractive index, [1]	speed of sound, [2] [m/s]
283.15 K, x1 = 0.05	869.8	1.49797	1363
283.15 K, x1 = 0.0998	863.7	1.49331	1356
283.15 K, x1 = 0.198	852	1.48436	1342
283.15 K, x1 = 0.2951	841	1.47614	1330
283.15 K, x1 = 0.3968	830.3	1.46797	1320
283.15 K, x1 = 0.4959	820.3	1.46042	1311
283.15 K, x1 = 0.5973	810.7	1.45319	1302
283.15 K, x1 = 0.697	801.8	1.44643	1296
283.15 K, x1 = 0.7954	793.5	1.44018	1290
283.15 K, x1 = 0.8932	785.8	1.4342	1285
283.15 K, x1 = 0.9487	781.6	1.43118	1283
283.15 K, x1 = 1	777.9	1.42833	1281
298.15 K, x1 = 0.05	855.9	1.48937	1297
298.15 K, x1 = 0.0998	849.9	1.48481	1290
298.15 K, x1 = 0.198	838.2	1.47597	1276
298.15 K, x1 = 0.2951	827.4	1.4678	1264
298.15 K, x1 = 0.3968	816.8	1.45982	1253
298.15 K, x1 = 0.4959	806.9	1.45225	1244
298.15 K, x1 = 0.5973	797.4	1.44519	1236
298.15 K, x1 = 0.697	788.6	1.4385	1229
298.15 K, x1 = 0.7954	780.4	1.43233	1223
298.15 K, x1 = 0.8932	772.7	1.42635	1219
298.15 K, x1 = 0.9487	768.6	1.42344	1216
298.15 K, x1 = 1	765.1	1.42062	1215

CC1CCCCC1 [methylcyclohexane] + c1ccccc1
Conditions	mass density, [2] [kg/m3]	refractive index, [1]	speed of sound, [2] [m/s]
283.15 K, x1 = 0.0504	880.6	1.50135	1359
283.15 K, x1 = 0.099	872.4	1.49548	1350
283.15 K, x1 = 0.1998	856.9	1.48438	1333
283.15 K, x1 = 0.2978	843.4	1.47501	1320
283.15 K, x1 = 0.3991	830.7	1.46578	1308
283.15 K, x1 = 0.4993	819.5	1.45783	1299
283.15 K, x1 = 0.598	809.6	1.45078	1293
283.15 K, x1 = 0.6991	800.5	1.44435	1288
283.15 K, x1 = 0.7981	792.4	1.43862	1284
283.15 K, x1 = 0.8961	784.9	1.4333	1282
283.15 K, x1 = 0.9523	781	1.43058	1282
283.15 K, x1 = 1	777.9	1.42833	1281
298.15 K, x1 = 0.0504	865	1.49162	1289
298.15 K, x1 = 0.099	857.1	1.48594	1280
298.15 K, x1 = 0.1998	841.9	1.47509	1263
298.15 K, x1 = 0.2978	828.8	1.46597	1250
298.15 K, x1 = 0.3991	816.5	1.45706	1240
298.15 K, x1 = 0.4993	805.7	1.44934	1231
298.15 K, x1 = 0.598	796	1.44247	1225
298.15 K, x1 = 0.6991	787.2	1.43623	1220
298.15 K, x1 = 0.7981	779.3	1.43061	1217
298.15 K, x1 = 0.8961	772	1.42549	1216
298.15 K, x1 = 0.9523	768.2	1.42279	1215
298.15 K, x1 = 1	765.1	1.42062	1215

Cc1ccccc1 [toluene]
Conditions	mass density, [3] [kg/m3]	refractive index, [4]	speed of sound, [3] [m/s]
283.15 K	876.1	1.50278	1371
298.15 K	862.2	1.49399	1305

Cc1ccccc1 [toluene] + C1CCCCC1
x2 = 0
Conditions	mass density, [2] [kg/m3]	refractive index, [1]	speed of sound, [2] [m/s]
283.15 K	876.1	1.50278	1371
298.15 K	862.2	1.49399	1305

Cc1ccccc1 [toluene] + C1CCCCCCC1
298.15 K, x2 = 0
Conditions	mass density [kg/m3]	refractive index	speed of sound [m/s]
[1]	–	1.49399	–
[2]	862.2	–	1305

Cc1ccccc1 [toluene] + CC1CCCCC1
x2 = 0
Conditions	mass density, [2] [kg/m3]	refractive index, [1]	speed of sound, [2] [m/s]
283.15 K	876.1	1.50278	1371
298.15 K	862.2	1.49399	1305
